Measured values: US6875736B2, “Methods for identifying RNA binding compounds” (priority 1999, dated 2005)
Non-standard residues stand in square brackets, D forms with d. Residues, ends and D or L forms follow the SMILES beside them.

Tests used:
wild-type TAR RNA = assay: Solid-phase RNA-peptide binding assay (dissociation constant); design: species or system HIV-1; settings: for KREL: KD of a basic Tat peptide / KD of inhibitor; for Kd: wild-type TAR RNA, TK buffer, overnight at 4° C., four independent experiments; for dissociation constant relative to tripeptide ID#1 (times higher): diastereomers of tripeptide ID#1
Excerpt: Solid-phase RNA-peptide binding assays. TAR RNA binding compounds found and decoded as described above (shown in Table 1) were synthesized on TENTAGEL S-NH2 (4.6 μmole). All fluorenylmethoxycarbonyl (Fmoc)-protected amino acids were purchased from Bachem (Torrance, Calif.). 1-hydroxybenzotriazole (HOBT) and diisopropylcarbodiimide (DIPCDI) were obtained from Aldrich Chemical Co., Milwaukee, Wis. Piperidine and trifluoroacetic acid were purchased from Applied Biosystems Division, Perkin-Elmer. All ligands were synthesized manually according to standard solid-phase peptide synthesis protocols. Coupling efficiencies of residues at each step were monitored using a standard Kaiser test. Deprotection of tripeptides was carried out in 10% water in trifluoroacetic acid (1 mL) for 16 hours at room temperature. After filtration of solvents, the resin was washed with water (1 mL×4), DMF (1 mL×4), and dichloromethane (1 mL×4), and dried under reduced pressure. Ten beads with attached tripeptides were placed in an Eppendorff tube and washed with TK buffer (200 μL×3). The beads were suspended in TK buffer (300 μL) and incubated with TAR RNA (1.95 μM) overnight at 4° C. The suspension was spun in a centrifuge, and the supernatant containing unbound RNA was transferred to a cuvette for optical density measurements at 260 nm using a Shimadzu UV-1601 spectrometer. Equilibrium concentrations of RNA were determined from these measurements. Given that the initial concentrations of ligand and RNA are known, and assuming simple bimolecular receptor/substrate binding, a dissociation constant (KD) was calculated from known equations in order to determine which test compounds bind TAR RNA most tightly.
To verify that this assay reflected RNA-tripeptide interactions and to determine the affinity of these tripeptides for TAR RNA, the eight tripeptides were resynthesized and their dissociation constants with wild-type TAR RNA were measured. […] To compare the RNA binding affinities of 8 ligands to natural Tat peptide, a Tat-derived peptide (Gly48 to Arg57) containing the RNA-binding region of Tat protein was synthesized (FIG. 2(b)) (SEQ. ID. NO. 2). The dissociation constant of the Tat peptide-RNA complex was determined under the same conditions used for the tripeptide-RNA complexes. […] A relative dissociation constant (KREL) can be calculated as the ratios of the Tat peptide to tripeptide dissociation constants (KD) for TAR RNA. Tripeptide ID #1 binds TAR RNA with affinities higher than the wild-type Tat peptide.

TAR RNA [1] = assay: On-bead screening of encoded tripeptide library with disperse red-labeled TAR RNA; assay type: binding, HIV-1; settings: for Color: bead colour with 250 nM disperse red-labeled TAR RNA, 4° C., red after 2 days, pink-red after 3 further days; for Frequency: number of stained beads decoded with this sequence, three copies of library, bead peptides N-acetylated
Procedure: Screening the library with TAR RNA. Three copies of the tripeptide library on encoded beads, which contain more than 95% of the members of the library, were placed in an eppendoff tube and washed with water (500 μL×5) and TK buffer (50 mM Tris-HCl (pH 7.4), 20 mM KCl, 0.1% Triton X-100) (500 μL×4), which is commonly used for the formation of Tat-TAR complexes in vitro (Churcher et al. (1993) J. Mol. Biol. 230, 90-110). After filtration, the beads were suspended in TK buffer (400 μL) and bovine serum albumin (0.1 mg/mL) at room temperature for 1 hour to reduce nonspecific binding. The aqueous phase was removed, and the beads were washed with TK buffer (500 μL×3). After filtration, the beads were resuspended in […] TK buffer, 2.5 μM of bulge mutant TAR RNA was added, and the suspension was stirred at 4° C. for 1 day. The buffer was removed, the beads were resuspended in […] TK buffer, and 250 nM disperse red-dye-labeled-TAR RNA and 2.5 μM bulge mutant TAR RNA were added. After 2 days of stirring at 4° C., the buffer was removed, and the remaining beads were washed with water (500 μL×3). Two red beads were picked under a microscope and placed in separate capillary tubes. The remaining beads were further incubated with a mixture of disperse-red-dye-labeled TAR RNA and bulge mutant TAR RNA for 3 days, as described above. During the second screening, eight beads turned red. These beads were picked and placed in capillary tubes.
Decoding the structures of RNA-binding ligands. A disperse-red dye labeled encoded bead was placed in a 25 μL micro capillary tube containing dimethylformamide (DMF) (2 μL) and the bead was washed with DMF(5 μL×4). After draining the solvent, the bead was resuspended in 2 μL DMF and the micro capillary tube was centrifuged for 4 min and then flame sealed. Each capillary tube containing a bead was then irradiated with UV radiation at 350 nm for 4 hours and spun for 5 minutes in a centrifuge. The capillary tube was opened and the cleaved tag alcohols were silylated with N, O-bis(trimethylsilyl)acetamide in a micro syringe. The N, O-bis(trimethylsilyl)acetamide derivatives (1 μL) were analyzed using electron capture gas chromatography (“ECGC”). A Hewlett Packard 6890 series Gas Chromatography system, equipped with a micro electron capture detector (μ-ECD) and a HP Chemstation operating system, was used for all decoding analyses. The GC was operated in splitless inlet mode, using helium as the carrier gas. A 35 m×0.2 mm i.d.×0.33 μm film thickness HP-Ultra 1 column was used with a temperature program of 1 min isothermal at 200° C. followed by heating at 10° C./min to 320° C. The μ-ECD make up gas was nitrogen.
On-bead selection of structure-specific TAR RNA binding compounds. To identify tripeptides that bind to TAR RNA, the dye disperse red was covalently attached to TAR RNA, and the labeled RNA was incubated in a suspension of library beads made using the split synthesis method. […] Nevertheless, the dye-TAR RNA conjugate was able to enter the beads and bind in a structure-dependent manner to tripeptides attached thereto. The red color of the dye was clearly evenly distributed throughout the translucent bead. Broken beads were not selected. Peptides specific for portions of TAR RNA other than the bulge region were blocked using a relatively large concentration of an unlabeled bulge mutant TAR RNA. A small amount of detergent and low RNA concentrations (250 nM) also minimized non-specific binding.
Ligand Sequence Analysis. Upon incubating the dye-TAR RNA conjugate with the library, only two beads were stained red. These two beads were separated from the rest of the library, which was allowed to incubate with the dye-TAR RNA conjugate for 3 days at 4° C. […] At the end of the second incubation, only eight additional beads were stained pink-red.

[2] = system: Tat trans-activation (HIV-1 LTR promoter, CAT reporter gene); assay: Inhibition of Tat trans-activation in HL3T1 cells (CAT reporter); assay type: cell-based
Procedure: (§1) Inhibition of Tat trans-activation in cellular assays. […] Cells were grown in 2 mL of Dulbecco's modified Eagle medium (DMEM) supplemented with 10% fetal calf serum in 60 mm dishes at 37° C. in 5% CO2 in a tissue culture incubator. Cells were refreshed by 2 mL DMEM before transfection. Transfection was started by dropwise addition of 250 μL 2×Hepes-buffered saline and maintenance at room temperature for 10 minutes. Approximately 10 μg of plasmids (pSV2Tat and pAL) and increasing amounts of tripeptide 1 were transfected in the presence of CaCl2 (final concentration 125 mM) and the cells were incubated for 4 hours at 37° C. in a tissue culture incubator. The medium was then discarded and the cells were subjected to glycerol shock (1.5 mL of 15%) for 45 seconds. Finally, the cells were washed twice with 5 mL phosphate-buffered saline (PBS) and were grown in 3 mL DMEM. DMEM was changed at 24 hours post-transfection, and cells were harvested 48 hours post-transfection. Cells were lysed in reporter lysis buffer (Promega). Aliquots were used for CAT and luciferase assays. Both activities were normalized to protein concentration determined by using a modified Bradford assay (Bio-Rad).
(§2) Inhibition of Tat trans-activation in vivo. […] Luciferase reporter gene provides an internal control.

luciferase gene = assay: Luciferase internal control in HL3T1 cells (pAL plasmid); assay type: cell-based; settings: increasing amounts of ligand
Procedure: as §1, §2

TAR RNA [3] = assay: NMR (TOCSY/NOESY) of TAR RNA with ligand; assay type: binding, HIV-1; settings: 1 to 2 mM RNA and ligand, 5 mM phosphate buffer pH 5.5
Procedure: NMR Spectroscopy. NMR experiments were performed to determine the interaction sites of tripeptide ID#1 on TAR RNA. NMR spectra of free TAR RNA and TAR RNA complexed with tripeptide ID#1 were recorded. Due to the spectral overlap, it was impossible to follow all but a few well-isolated resonances by conventional 1-dimensional experiments. Therefore, two-dimensional NOESY and TOCSY experiments were performed. All spectra were recorded on a Bruker AMX-500 NMR spectrometer operating at 500 MHz for ^1H equipped with triple resonance probe and H-broadband inverse detection probes. The 1D and 2D ^1H spectra were recorded at approximately 1 to 2 mM RNA and tripeptide ID#1 concentrations in 5 mM phosphate buffer (pH 5.5), with up to 100 mM NaCl. All other conditions were the same as described earlier by Aboul-ela et al. ((1995) J. Mol. Biol. 253, 313-332.). Complete TAR RNA assignments were obtained. Increasing amounts of tripeptide 1 were added to TAR RNA and the spectral changes were monitored by two-dimensional TOCSY experiments. The TOCSY spectrum contains a region where only pyrimidine H5-H6 resonances are found; this region has a well-dispersed 2D spectrum. Resonances in the free RNA and RNA-ligand complexes were assigned by NOESY experiments. […]

dye-labeled TAR RNA = assay: Equilibrium interaction of dye-labeled TAR RNA with bead-tethered tripeptide; assay type: binding, HIV-1; settings: dye-labeled TAR RNA 1 μM, TK buffer, 4° C., 5 hours
Procedure: Second, the equilibrium interaction between dye-labeled TAR RNA and a tripeptide tethered to beads was examined by incubating a suspension of beads containing tripeptide ID#1 in TK buffer (400 μL) with dye-labeled TAR RNA (1 μM) at 4° C. for 5 hours. Beads were stained red upon TAR RNA binding. The interaction between dye-labeled TAR RNA and tripeptide ID #1 is reversible and can be abolished by the addition of unlabeled TAR RNA or tripeptide ID#1 as a competitor. Finally, screening the library with dye-labeled TAR RNA was carried out in the presence of excess unlabeled bulge mutant TAR RNA, inhibiting non-specific TAR RNA-peptide interactions.

Compound	KREL (wild-type TAR RNA)	Kd (wild-type TAR RNA) [nM]	Kd (wild-type TAR RNA; listed as tripeptide ID#1) [nM]	Color (TAR RNA [1])	Frequency (TAR RNA [1])	Tat trans-activation inhibited ([2]; 700 nM, CAT activity)	Transcription of the luciferase gene (luciferase gene)	shift of TAR RNA resonances in TOCSY spectra (TAR RNA [3])	bead staining upon dye-labeled TAR RNA binding (dye-labeled TAR RNA)	Cell viability / toxicity to the cells (HL3T1 cells)	inhibitory effect on Tat transactivation ([2]; control ligands)	dissociation constant relative to tripeptide ID#1 (times higher) (wild-type TAR RNA)
NCCCC[C@H](N)C(=O)N[C@H](CCCCN)C(=O)N[C@@H](CC(N)=O)C(=O)O [ID #1, H2N-(L)Lys-(D)Lys-(L)Asn-OH] (H-Lys-[dK]-Asn-OH)	1.73	420 ± 44	441	Red	2	more than 90%	not affected	Resonances in the bulge region, U23 and C24, were shifted	stained red	not toxic		
N=C(N)NCCC[C@H](N)C(N)=O [L-argininamide, reference compound]											no inhibitory effect	
GRKKRRQRRR [Tat peptide, reference compound]		698										
H2N-(D)Thr-(D)Lys-(L)Asn-OH [ID #7]	1.29	564 ± 80		Pink	1							
H2N-(D)Thr-(D)Lys-(L)Phe-OH [ID #8]	0.35	2090		Pink	1							
H2N-(L)Arg-(D)Lys-(L)Arg-OH [ID #6]	0.83	878 ± 80		Pink	1							
H2N-(L)Arg-(D)Lys-(L)Asn-OH [ID #4]	0.28	2640		Pink	1							
H2N-(L)Arg-(D)Lys-(L)Val-OH [ID #5]	0.07	10400		Pink	1							
H2N-(L)Lys-(D)Lys-(D)Asn-OH [ID #2]	0.17	4170		Pink	1							approximately 7 times
H2N-(L)Lys-(L)Lys-(L)Asn-OH [ID #3]	0.23	3220		Pink	2							approximately 7 times
